# Reference: US12064420B2, “Tie-2 activators targeting the Schlemm's canal” (EyePoint Pharmaceuticals, Inc., priority 2019, dated 2024)
# How the values were obtained:
# [1] = test system: ocular normotensive New Zealand White rabbits; assay: IOP in ocular normotensive rabbits, topical ocular or subcutaneous Compound 1; assay type: in vivo, rabbit
# Procedure: To examine the effect of Compound 1 on IOP, Compound 1 was delivered either by subcutaneous injection, or by topical drops to ocular normotensive New Zealand White rabbits, and IOP was followed over time (FIGS. 3A-3C). For this study, 25 female New Zealand White rabbits were administered the sodium salt of Compound 1 for seven days QD or BID topically (30 μL drop) into both eyes, or twice daily subcutaneously, or vehicle twice daily topically into both eyes. Eye drops (4% Compound 1 or vehicle) were administered, with study staff masked to treatment. Five dose groups (5 rabbits per group) were tested: 1) vehicle control—15% HPβCD (+1% dextrose); 2) 1.5% (15 mg/mL) Compound 1 BID; 3) 4% (40 mg/mL) Compound 1 BID; 4) 4% (40 mg/mL) Compound 1 QD; and 5) 10 mg/kg (40 mg/mL) Compound 1 administered subcutaneously BID. IOP measurements were performed at baseline (prior to the start of dosing), and once daily on days 2-8. Prior to performing IOP measurements, 1 to 2 drops of a 0.5% proparacaine solution were applied to the eye as a topical anesthetic. IOP measurements were performed with a pneumotonometer 2 hours after morning dosing. The only exceptions were Day 8 measurements, which were performed 24 hours after the final dose. IOP data were analyzed using a mixed-design two-factor ANOVA, with time as the within-subjects factor and treatment as the between-subjects factor. IOP values for Day 7 and Day 8 were analyzed using one-way ANOVA. The change from baseline IOP on Day 7 and on Day 8 was calculated for each animal, and the resulting values were analyzed using one-way ANOVA. Area under the curve (AUC) was calculated for all morning IOP measurements throughout the study for each group; AUC values for the different groups were analyzed using one-way ANOVA. Where appropriate, post hoc testing was performed using Tukey's multiple comparisons tests. The level of significance was set at 0.05.
# [2] = test system: ocular normotensive human patients with diabetic eye disease; assay: Phase 2 trial: IOP after subcutaneous Compound 1 alone or with intravitreal ranibizumab, diabetic macular edema; assay type: in vivo; conditions: for Week 4 subject-level IOP change from BL, mean (SD) / Week 4 subject-level IOP, mean (SD) / Week 8 subject-level IOP change from BL, mean (SD) / Week 8 subject-level IOP, mean (SD) / Week 12 subject-level IOP change from BL, mean (SD) / Week 12 subject-level IOP, mean (SD): average of study eye and fellow eye
# Procedure: IOP in patients were measured using a double-masked, parallel-group designed to assess the effects of subcutaneous (SC) Compound 1 (sodium salt) alone, or as an adjunct to intravitreal ranibizumab trial. 144 human subjects with diabetic retinopathy complicated by center-involved diabetic macular edema (DME) were randomized to 3 months of one of 3 treatments: 1) Compound 1 (15 mg) SC twice daily (BID) plus sham monthly intravitreal injection (IVT); 2) Compound 1 SC BID plus ranibizumab (0.3 mg) monthly IVT; and 3) Placebo SC BID+ranibizumab IVT. At baseline, mean age was 61.3±1.3 years; 59% of subjects were male; 82.6% had Type 2 diabetes; mean HBA1c was 7.5%±1.3%; mean best corrected visual acuity was 60.2 ETDRS letters (Snellen 20/63); and mean IOP was 15.7 mmHg±3.4. Ophthalmic safety assessments were performed at baseline and monthly during the 3-month treatment period including a single IOP measurement by applanation tonometry in both the study eye and the fellow eye at each time point. By protocol, all patients had baseline IOP<24 mmHg (ocular normotensive).
# In the pre-specified safety analysis, change from baseline IOP was analyzed using a t-test (null hypothesis 0 change from baseline). The level of significance was set at 0.05. A post hoc analysis of the subject level IOP measure was the change from baseline in the average over both eyes within a subject for each timepoint. Statistical testing of each timepoint was completed using ANCOVA with baseline IOP (averaged over both eyes within a subject) as covariate. Additionally, statistical testing averaging across all timepoints was completed using a mixed-model repeated measures ANCOVA. The level of significance was set at 0.05.
# [3] = 10 mg/kg BID subcutaneous injection
# [4] = week 12, listed as All Compound 1
# [5] = week 12, listed as Compound 1 + Sham
smiles,measurement,setting,value
"COC(=O)N[C@@H](Cc1ccccc1)C(=O)N[C@@H](Cc1ccc(NS(=O)(=O)O)cc1)c1csc(-c2cccs2)n1 [Compound 1, 4-{(S)-2-[(S)-2-(Methoxycarbonylamino)-3-phenylpropanamido]-2-[2-(thiophen-2-yl)thiazol-4-yl]ethyl}phenylsulfamic acid]",IOP-lowering effect on the last day of dosing (Day 7),[1]; [3],the effect did not persist
same,IOP-lowering effect relative to vehicle control on Days 3 and 4,[1]; [3],significant maximum IOP-lowering effect
same,"area under the curve for IOP values over 7 days versus vehicle, 1.5% TO BID or 10 mg/kg SC BID",[1]; 4% topical ocular QD or BID,statistically-significantly lower
same,time to steady-state effect on IOP,[1]; daily topical ocular dosing of 4.0%,steady-state effect on IOP was observed by Day 3
same,"IOP reduction, topical ocular versus subcutaneous administration",[1]; rabbits,larger with topical ocular administration than with subcutaneous administration
same,IOP-lowering effect versus vehicle control or 1.5% Compound 1 BID,"[1]; topical ocular 4% QD and BID, 7 days",significantly larger IOP-lowering effect
same,"IOP on Day 8, 24 hours after the last dose",[1]; two high-dose (4%) topical ocular groups,significant reduction in IOP persisted on Day 8
same,"Week 4 subject-level IOP change from BL, mean (SD)",[2]; listed as All Compound 1,−1.2 (2.92) mmHg
same,"Week 4 subject-level IOP, mean (SD)",[2]; listed as All Compound 1,14.5 (2.92) mmHg
same,"Week 4 subject-level IOP change from BL, mean (SD)",[2]; listed as Compound 1 + Sham,−0.8 (3.14) mmHg
same,"Week 4 subject-level IOP, mean (SD)",[2]; listed as Compound 1 + Sham,14.7 (2.88) mmHg
same,"Week 8 subject-level IOP change from BL, mean (SD)",[2]; listed as All Compound 1,−1.3 (3.17) mmHg
same,"Week 8 subject-level IOP, mean (SD)",[2]; listed as All Compound 1,14.5 (3.31) mmHg
same,"Week 8 subject-level IOP change from BL, mean (SD)",[2]; listed as Compound 1 + Sham,−1.1 (3.25) mmHg
same,"Week 8 subject-level IOP, mean (SD)",[2]; listed as Compound 1 + Sham,14.4 (3.26) mmHg
same,"Week 12 subject-level IOP change from BL, mean (SD)",[2]; [4],−1.3 (2.93) mmHg
same,"Week 12 subject-level IOP, mean (SD)",[2]; [4],14.5 (3.31) mmHg
same,"Week 12 subject-level IOP change from BL, mean (SD)",[2]; [5],−1.4 (2.98) mmHg
same,"Week 12 subject-level IOP, mean (SD)",[2]; [5],14.1 (3.36) mmHg
same,"Week 4 IOP change from BL, mean (SD)",[2]; fellow eye (FE),−0.8 (3.36) mmHg
same,"Week 8 IOP change from BL, mean (SD)",[2]; fellow eye (FE),−1.1 (3.58) mmHg
same,"Week 12 IOP change from BL, mean (SD)","[2]; fellow eye (FE), week 12",−1.4 (3.29) mmHg
same,"Week 12 IOP, mean (SD)","[2]; fellow eye (FE), week 12",14.0 (3.41) mmHg
same,"Week 4 IOP change from BL, mean (SD)",[2]; study eye (SE),−0.8 (3.34) mmHg
same,"Week 8 IOP change from BL, mean (SD)",[2]; study eye (SE),−1.1 (3.37) mmHg
same,"Week 12 IOP change from BL, mean (SD)","[2]; study eye (SE), week 12",−1.4 (3.16) mmHg
